Reference: patent US20220387403A1, “COMPOUNDS, COMPOSITIONS AND METHODS FOR TREATING NASH, NAFLD, AND OBESITY” (CVI Pharmaceuticals Limited, priority 2019, published 2022)
Like-named read-outs stand apart in the source and are kept apart here.

Assays:
LDLR mRNA = LDLR mRNA expression in HepG2 cells, semi-quantitative RT-PCR; type: cell-based, human; conditions: 8 hours, FIG. 3
Method: HepG2 cells obtained from American Tissue Culture Collection (Manassas, Va., USA) were seeded in 6-well culture plates at a density of 0.8×10^6 cells/well cultured in EMEM containing 0.5% FBS and were treated with each purified compound at indicated doses for 8 hours. Total RNA was isolated, and 2 μg per sample was reverse transcribed with random primers using M-MLV (Promega) at 37° C. for 1 hour. PCR was carried out at 94° C. for 30 sec, 60° C. for 30 sec, and 72° C. for 30 sec with initial activation of the enzyme at 94° C. for 1 minute. Thirty cycles were performed for LDLR and GAPDH. PCR was performed using primers HLDLR-up and HLDLR-lo for LDLR and primers HGAPDH-up and HGAPDH-lo for GAPDH. The PCR products were separated on a 1% agarose gel and the band intensity was quantitated. LDLR mRNA levels were corrected by measuring GAPDH mRNA levels.
Specific stereochemical requirements of +/−THP in the upregulation of LDLR mRNA expression were determined by a similar experiment. HepG2 cells were treated with the pure 14R-(+)-THP or the pure 14S-(−)-THP at the indicated concentrations for 24 hours. The levels of LDLR mRNA and GAPDH mRNA in untreated and the compound-treated HepG2 cells were assessed by semi-quantitative RT-PCR.

ACC = assay: Western blot of phosphorylated ACC in HepG2 cells; type: cell-based, human; conditions: 20 μM, 1, 2 and 3 days
Method: (§1) Cells were harvested after 1, 2, and 3 days treatment and western blot analysis was conducted using antibodies directed to LDLR and PCSK9. Chicken anti-LDLR was purchased from Abcam, the mouse anti-PCSK9 was purchased from Cayman Chemicals, and anti-pACC was purchased from Cell Signaling.
(§2) Chicken anti-LDLR was purchased from Abcam and the mouse anti-PCSK9 was purchased from Cayman Chemicals. HepG2 cells cultured in 60-mm dishes were incubated overnight in medium containing 0.5% fetal bovine serum prior to the addition of compounds at 20 uM concentration for 1-3 days. Total cell lysate was isolated and 50 μg of protein was separated on SDS-PAGE and transferred to nitrocellulose membrane for immunoblotting with anti-LDLR, anti-PCSK9, and anti-p-ACC.

LDLR = assay: Western blot of LDLR protein in HepG2 cells; type: cell-based, human; conditions: for LDLR protein levels (in words): 20 μM, 1, 2 and 3 days
Method: as §1
(§3) To determine whether the stimulatory effects of statins on LDLR protein expression could be enhanced by some new compounds invented herein, HepG2 cells were untreated or treated with a low dose of rosuvastatin (RSV) at 0.3 and 1 uM concentration in the absence or the presence of Compound 127(+), or treated with low concentrations of Compound 127(+) alone for 2 days. Western blot analysis was conducted to examine LDLR and PCSK9 protein levels. Compound 127(+) is the single enantiomer of compound 127 with a positive optical rotation. […] Furthermore, the inducing effects of RSV on PCSK9 protein levels were antagonized by compound 127(+).
as §2

PCSK9 = assay: Western blot of PCSK9 protein in HepG2 cells; type: cell-based, human; conditions: for expression of PCSK9 protein (in words): 20 μM, 1, 2 and 3 days
Method: as §1, §3, §2

hyperlipidemic rabbits [1] = assay: Lipid lowering effects and blood chemistry in hyperlipidemic rabbits; conditions: for serum total cholesterol level: in mM
Method: (§4) Forty-two male Japanese rabbits were fed the cholesterol enriched rabbit diet for two weeks to induce hypercholesterolemia. […] Serum samples were collected at day 0 (before the drug treatment) and day 7. […] All tested animals were sacrificed at the end of a total of 14 days treatment and serum samples were analyzed for TC, LDL-C, TG, and HDL-C. In addition to lipid profiles, a number of biochemical parameters were also analyzed to aseesee the effects of drug treatments on liver function, muscle function, kidney function, and heart function.

hyperlipidemic rabbits [2] = conditions: rabbit, in vivo
Method: as §4

Male Wister rats [3] = assay: Food intake and body weight in Wister rats under a high fat and high cholesterol diet; type: in vivo, rat; conditions: 4-week treatment
Method: The food intake and body weight gains were measured every week during the 4-week treatment period. […] In the first week, the amount of food consumed was decreased in CRDL-treated group. […] The ability of CRDL to activate AMPK signaling pathway to increase energy expenditure and to reduce fat accumulation likely contributes to this weight reducing effect.

Male Wister rats [4] = assay: Lipid lowering effects in Wister rats under a high fat and high cholesterol diet; type: in vivo, rat; conditions: 75 mg/kg daily oral
Method: Male Wister rats were used as an animal model to examine the in vivo effects of (14R, 13S)-CRDL in plasma lipid levels.
In one experiment, 18 Wister male rats under a high fat and high cholesterol diet were divided into 2 groups. One group was given (14R, 13S)-CRDL hydrochloride salt orally at a daily dose of 75 mg/kg by an orogastric tube for 4 weeks, and the control group received daily treatment of equal amount of vehicle (0.1 M sodium phosphate, pH 3.5). Serum lipid levels were measured weekly.
At the end of treatment, Rats were sacrificed and blood and sera were collected to measure several critical parameters for liver function and kidney function. […] Kidney function and blood glucose level were not changed by the treatment.

[5] = with rosuvastatin 0.3 and 1 uM, 2 days
[6] = after 14 days of drug treatment, mean, n = 6
[7] = treatment day 0 (before the drug treatment), mean ± SD, n = 6
[8] = treatment day 4, 128(+)/128(−) 30 mg/kg, SMV/ATV 3 mg/kg once a day oral gavage
[9] = treatment day 7, 128(+)/128(−) 30 mg/kg, SMV/ATV 3 mg/kg once a day oral gavage
[10] = treatment day 10, from day 7 128(+)/128(−) 60 mg/kg, SMV/ATV 10 mg/kg
[11] = treatment day 14, from day 7 128(+)/128(−) 60 mg/kg, SMV/ATV 10 mg/kg

SMILES | effects on LDLR mRNA expression (in words) (LDLR mRNA) | ACC phosphorylation (in words) (ACC) | LDLR protein levels (in words) (LDLR) | expression of PCSK9 protein (in words) (PCSK9) | HDL-C (hyperlipidemic rabbits [1]; [6]) | LDL-C (hyperlipidemic rabbits [1]; [6]) | TC (hyperlipidemic rabbits [1]; [6]) | TG (hyperlipidemic rabbits [1]; [6]) | serum total cholesterol level (hyperlipidemic rabbits [1]; [7]) | serum total cholesterol level (hyperlipidemic rabbits [1]; [8]) | serum total cholesterol level (hyperlipidemic rabbits [1]; [9]) | serum total cholesterol level (hyperlipidemic rabbits [1]; [10]) | serum total cholesterol level (hyperlipidemic rabbits [1]; [11]) | other results
COc1cc2c(cc1O)CCN1Cc3c(ccc(OC)c3OC)CC21 (stereo not drawn) [14R-(+)-CRPM, 14R-(+)-corypalmine] | potent and dose-dependent effects | – | – | – | – | – | – | – | – | – | – | – | – | –
COc1cc2c(cc1OC)[C@H]1Cc3ccc(OC)c(OC)c3CN1CC2 [14R-(+)-THP, 14R-(+)-tetrahydropalmatine] | potent and dose-dependent effects | – | – | – | – | – | – | – | – | – | – | – | – | –
COc1cc2c(cc1OC)C1Cc3ccc(OC)c(OS(=O)(=O)c4cccc(F)c4)c3CN1CC2 (stereo not drawn) [127(+), 2,3,10-Trimethoxy-5,6,7,8,13,13a-hexahydroisoquinolino[2,1-b]isoquinolin-9-yl 3-fluorobenzenesulfonate] | – | induced | effectively increased | strongly inhibited | – | – | – | – | – | – | – | – | – | stimulatory effects of statins on LDLR protein expression, combination (in words) (LDLR; [5]): further improved; inducing effects of RSV on PCSK9 protein levels, combination (in words) (PCSK9; [5]): antagonized
COc1ccc2c(c1)CCN1Cc3c(ccc(OC)c3OS(=O)(=O)c3cccc(F)c3)CC21 (stereo not drawn) [128(+), 3,10-Dimethxoy-5,6,7,8,13,13a-hexahydroisoquinolino[2,1-b]isoquinolin-9-yl 3-fluorobenzenesulfonate] | – | induced | effectively increased | strongly inhibited | 3.6 mmol/L | 29.7 mmol/L | 34.2 mmol/L | 1.0 mmol/L | 28.6 ± 6.7 | 31.9 ± 7.5 | 33.9 ± 7.2 | 33.8 ± 7.8 | 34.2 ± 7.4 | ALP (hyperlipidemic rabbits [1]; [6]): 165.2 IU/L; ALT (hyperlipidemic rabbits [1]; [6]): 68.7 IU/L; AST (hyperlipidemic rabbits [1]; [6]): 20.8 IU/L; CK (hyperlipidemic rabbits [1]; [6]): 1172.3 U/L; CREA (hyperlipidemic rabbits [1]; [6]): 97.2 µmol/L; GLU (hyperlipidemic rabbits [1]; [6]): 7.9 mmol/L; LDH (hyperlipidemic rabbits [1]; [6]): 47.7 IU/L; body weight (hyperlipidemic rabbits [1]; [6]): 2.6 kg
COc1ccc2c(c1)CCN1Cc3c(ccc(OC)c3OS(=O)(=O)c3cccc(F)c3)CC21 (stereo not drawn) [128(−), 3,10-Dimethxoy-5,6,7,8,13,13a-hexahydroisoquinolino[2,1-b]isoquinolin-9-yl 3-fluorobenzenesulfonate] | – | induced | effectively increased | strongly inhibited | 3.5 mmol/L | 24.4 mmol/L | 29.7 mmol/L | 0.9 mmol/L | 28.5 ± 6.3 | 29.9 ± 8.0 | 29.0 ± 7.9 | 27.9 ± 5.2 | 29.7 ± 4.9 | ALP (hyperlipidemic rabbits [2]): 155.5 IU/L; ALT (hyperlipidemic rabbits [2]): 50.2 IU/L; AST (hyperlipidemic rabbits [2]): 20.8 IU/L; CK (hyperlipidemic rabbits [2]): 997.5 U/L; CREA (hyperlipidemic rabbits [2]): 105.2 µmol/L; GLU (hyperlipidemic rabbits [2]): 7.9 mmol/L; LDH (hyperlipidemic rabbits [2]): 50.3 IU/L; adverse effect / toxicities (in words) (hyperlipidemic rabbits [2]): absence of any adverse effect; TC and LDL-C reduction (in words) (hyperlipidemic rabbits [1]; 14 days treatment): strong TC and LDL-C reduction
COc1cc2c(cc1OC)[C@H]1[C@@H](C)c3ccc(OC)c(OC)c3CN1CC2 [CRDL, corydaline] | – | – | – | – | – | – | – | – | – | – | – | – | – | body weight (Male Wister rats [3]): maintained constant; adverse effects during the entire treatment (Male Wister rats [4]; 4 weeks): No any adverse effects; Kidney function and blood glucose level (Male Wister rats [4]; end of 4-week treatment): not changed; serum levels of AST and ALT vs control group (Male Wister rats [4]; end of 4-week treatment): statistically lower; LDL-c level, of control (Male Wister rats [4]; hydrochloride salt, 4 weeks): 25.6%; LDL-c level, of day 0 (Male Wister rats [4]; hydrochloride salt, 4 weeks): 22.4%; TC compared to the control group (Male Wister rats [4]; hydrochloride salt, 4 weeks): 33.8%; TC, of the pretreatment level (Male Wister rats [4]; hydrochloride salt, 4 weeks): 33.0%; TG level, of the control (Male Wister rats [4]; hydrochloride salt, 4 weeks): 29%; TG level, of the pretreatment level (day 0) (Male Wister rats [4]; hydrochloride salt, 4 weeks): 27%
